Experimental findings from the supplement of paper PMC11208160 are described below.
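Further: IS621 recombinase and bridge RNA in Escherichia coli cells.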

The nature of the data set: recombinant barcode read abundance after kanamycin selection (control-corrected) (log10(CPM+1)); higher = more efficient recombination; sequences stand for … in AGTGCAGAGAAAATCGGCCAGTTTTCTCTGCCTGCAGTCCGCATGCCGT…AGATTTATGCAGCGGACTGCCTTTCTCCCAAAGTGATAAACCGGACAGTATCATGGACCGGTTTTCCCGGTAATCCGTATTTGCAAGGTTGGTTTCACT; site = the 11-nt target. In outline: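 Two replicates per condition were plated: chloramphenicol/ampicillin LB agar for the control, and chloramphenicol/ampicillin/kanamycin with 0.1 mM IPTG for selection. The pooled E. coli screen behind them paired targets with IS621 bridge RNA target-binding loops. Recombination efficiency is expressed from averaged, control-corrected barcode counts per million at recombinant junctions, as log10(CPM+1).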
As to “TAATCGGCTTGGGTTCTAACCTGTTGCCT (site TAATCGTCTAG)”, the “recombinant barcode read abundance (log10)” value turned out to be 0.111. For the sequence “TAATCGTCTTGGGTTCTAACCTGTTGCCT (site TAATCGACTAG)”, the “recombinant barcode read abundance (log10)” value worked out at 0.0844. As to “TAATCGTCTTGGGTTCTAACCTGTTGCCT (site TAATCGCCTAG)”, the “recombinant barcode read abundance (log10)” value amounted to 0.0275. As for “TAATCGTCTTGGGTTCTAACCTGTTGCCT (site TAATCGGCTAG)”, the figure is 0.0826; as for “TAATCGTCTTGGGTTCTAACCTGTTGCCT (site TAATCGTCTAG)”, 1.84; as for “TAATGATCTTGGGTTCTAACCTGTTGCCT (site TAATGATCTAG)”, 0.635.

“TAATGATCTTGGGTTCTAACCTGTTGCCT (site TACTGATCTAG)”: the “recombinant barcode read abundance (log10)” value is 0.0744.

Consider “TAATGATCTTGGGTTCTAACCTGTTGCCT (site TAGTGATCTAG)”, for which the “recombinant barcode read abundance (log10)” value came to 0.15. Regarding “TAATGATCTTGGGTTCTAACCTGTTGCCT (site TATTGATCTAG)”, the “recombinant barcode read abundance (log10)” value was determined as 0.155.

With “TAATGCCCTTGGGTTCTAACCTGTTGCCT (site TAATGCCCTAG)”, the “recombinant barcode read abundance (log10)” value was determined as 0.634. For the sequence “TAATGCCCTTGGGTTCTAACCTGTTGCCT (site TATTGCCCTAG)”, the “recombinant barcode read abundance (log10)” value was 0.13. With “TAATGTTCTTGGGTTCTAACCTGTTGCAT (site TAATGGTCTAT)”, the “recombinant barcode read abundance (log10)” value was determined as 0.0924.

On to “TAATGTTCTTGGGTTCTAACCTGTTGCAT (site TAATGTTCTAT)”, for which the “recombinant barcode read abundance (log10)” value was 1.14. “TAATTGTCTTGGGTTCTAACCTGTTGCGT (site CAATTGTCTAC)”: the “recombinant barcode read abundance (log10)” value was found to be 0.725.

Regarding “TAATTGTCTTGGGTTCTAACCTGTTGCGT (site TAATTGTCTAC)”, the “recombinant barcode read abundance (log10)” value is 2.45. Take “TAATTTGCTTGGGTTCTAACCTGTTGCCT (site CGCGAGTCTCA)”: the “recombinant barcode read abundance (log10)” value was found to be 0.215. In the case of “TAATTTGCTTGGGTTCTAACCTGTTGCCT (site TAATTTGCTAG)”, the “recombinant barcode read abundance (log10)” value is 0.182. “TACAAGCCTTGGGTTCTAACCTGTTGCGG (site TACAAGCCTCC)”: the “recombinant barcode read abundance (log10)” value was 1.91. In the case of “TACAAGCCTTGGGTTCTAACCTGTTGCGG (site TACAAGTCTCT)” it was 0.051; in that of “TACAAGTCTTGGGTTCTAACCTGTTGCAG (site TACAAGCCTCC)”, 0.11; in that of “TACAAGTCTTGGGTTCTAACCTGTTGCAG (site TACAAGTCTCT)”, 1.47. As for “TACACTACTTGGGTTCTAACCTGTTGCAT (site TACACTACTAT)”, the “recombinant barcode read abundance (log10)” value was 0.131. In the case of “TACACTACTTGGGTTCTAACCTGTTGCAT (site TACCCTACTAT)” it was 0.134; in that of “TACAGACCTTGGGTTCTAACCTGTTGCAG (site ACGGAGTCTTA)”, 0.128. Turning to “TACAGACCTTGGGTTCTAACCTGTTGCAG (site TACAGACCTCT)”, the “recombinant barcode read abundance (log10)” value is 1.28. “TACAGTCCTTGGGTTCTAACCTGTTGCCT (site TACAGTCCTAG)”: the “recombinant barcode read abundance (log10)” value stood at 1.06.

For “TACAGTCCTTGGGTTCTAACCTGTTGCCT (site TGCACTCCTAG)”, the “recombinant barcode read abundance (log10)” value was found to be 0.276. As for “TACCACTCTTGGGTTCTAACCTGTTGCCT (site AACCACTCTAG)”, the figure is 0.335; as for “TACCACTCTTGGGTTCTAACCTGTTGCCT (site CACCACTCTAG)”, 0.887; as for “TACCACTCTTGGGTTCTAACCTGTTGCCT (site GACCACTCTAG)”, 0.13. Regarding “TACCACTCTTGGGTTCTAACCTGTTGCCT (site TACCACTCTAG)”, the “recombinant barcode read abundance (log10)” value was 2.24. Consider “TACCAGTCTTGGGTTCTAACCTGTTGCTT (site TACCAGTCTAA)”, for which the “recombinant barcode read abundance (log10)” value is 1.74.
